Experiments:
glucosidase I = target: T1, glucosidase I (Homo sapiens, UniProt Q13724); details: cited from earlier work
T1 sequence (Q13724 1-837): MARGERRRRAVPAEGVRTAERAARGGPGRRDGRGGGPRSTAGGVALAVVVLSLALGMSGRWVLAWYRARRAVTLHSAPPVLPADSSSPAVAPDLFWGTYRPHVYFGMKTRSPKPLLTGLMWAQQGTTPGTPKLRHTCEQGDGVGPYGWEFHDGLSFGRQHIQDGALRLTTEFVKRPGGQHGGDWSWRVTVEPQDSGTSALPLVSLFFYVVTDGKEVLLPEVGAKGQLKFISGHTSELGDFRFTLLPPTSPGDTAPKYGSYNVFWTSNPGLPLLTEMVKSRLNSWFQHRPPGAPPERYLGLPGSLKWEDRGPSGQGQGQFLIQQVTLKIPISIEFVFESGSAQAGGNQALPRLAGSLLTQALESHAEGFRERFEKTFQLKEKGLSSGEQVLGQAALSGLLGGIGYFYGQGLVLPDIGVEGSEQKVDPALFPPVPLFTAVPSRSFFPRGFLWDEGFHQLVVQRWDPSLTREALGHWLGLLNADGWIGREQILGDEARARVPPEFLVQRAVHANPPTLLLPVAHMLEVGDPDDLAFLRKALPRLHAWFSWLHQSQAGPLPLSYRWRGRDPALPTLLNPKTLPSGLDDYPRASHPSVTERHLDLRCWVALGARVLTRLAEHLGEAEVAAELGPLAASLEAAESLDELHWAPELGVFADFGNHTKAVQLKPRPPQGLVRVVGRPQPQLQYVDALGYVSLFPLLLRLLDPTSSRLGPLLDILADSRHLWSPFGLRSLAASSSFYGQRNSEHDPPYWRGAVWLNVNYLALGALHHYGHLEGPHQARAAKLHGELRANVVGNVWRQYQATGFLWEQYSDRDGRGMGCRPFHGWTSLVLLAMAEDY

oligosaccharide addition = details: cited from earlier work
[1] = system: woodchuck hepatitis virus (WHV); details: previous study (ref. 11); cited from earlier work
[2] = system: HLA-A2 expressing T2 target cells; test: interferon-γ ELISpot: peptide-primed CTLs against peptide-pulsed T2 cells; type: cell-based, human; details: PBMCs of healthy HLA-A2 donors stimulated in vitro with peptide; FIG. 2A
Protocol: Heparinized blood from healthy HLA-A2 donors was purchased from Research Blood Components, LLC, (Brighton, Mass.). Peripheral blood mononuclear cells were purified and cultured as described (13, 21). After initial stimulation with synthetic peptide, T cells were re-stimulated with CD4/CD8 T cell depleted autologous monocytes pulsed with synthetic peptide at 10 μg/ml for 5 days. IL-2 treatment and in vitro re-stimulation were repeated thrice prior to use of in vitro expanded T cells in ELISpot assays.
In vitro expanded CTLs were used as effectors in ELISpot assays to assess antigen stimulated interferon-γ release according to the manufacturer's instructions (BD-Pharmingen, San Jose, Calif.). Target cells were HepG2 human hepatoma cells (HBV negative; American Type Culture Collection) or HBV-containing HepG2.2.15 cells (22). […]
Peptides presented on the surface of a cell in the context of the MHC class I complex should be recognized with high sensitivity upon incubation with cognate peptide-primed CTLs, with specific killing of the target cells. […] Target cell recognition was quantified by interferon-γ ELISpot assay.
The ability of in vitro generated CTLs to recognize and secrete interferon-γ was evaluated by ELISpot assay. […] The P value was calculated from a Student's t-Test analysis of experimental results.

| Compound | prevention of oligosaccharide addition (oligosaccharide addition) | elicitation of specific CTLs that recognize T2 target cells [2] | other results |
| --- | --- | --- | --- |
| O[C@H]1[C@H](O)[C@@H](O)CN2CC[C@H](O)[C@H]12 [Castanospermine] | does not | – | potency as inhibitor of glucosidase I relative to deoxynojirimycin (glucosidase I): more potent inhibitors of glucosidase I than deoxynojirimycin |
| CCCCCCCCCN1C[C@H](O)[C@@H](O)[C@H](O)[C@H]1CO [N-nonyl deoxynojirimycin] | – | – | antiviral activity in woodchucks [1]: antiviral activity had previously been observed |
| OC[C@H]1NC[C@H](O)[C@@H](O)[C@@H]1O [deoxynojirimycin] | prevents oligosaccharide addition some fraction of the time | – | – |
| KPSDGDCTC [D-peptide, de-N-glycosylated 'D' substituted HBs peptide] | – | effective elicitors of specific CTLs | – |
| KPSDGNCTC [N-peptide] | – | effective elicitors of specific CTLs | – |

— patent publication US20160051665A1, “INDUCTION OF IMMUNE RESPONSE” (priority 2010, published 2016)
